According to patent US7981878B2, “Tumor treatment with gliotoxin derivatives” (priority 2005, dated 2011):

Experiments:
[1] = system: K 562, U 937, HCT-15, HCT-116, SW946, LX-1, P 388, colon-26 cell lines; settings: as indicated in EP 926 242 A1; cited from earlier work
Notch2 (N2^IC) = assay: Nuclear Notch2 activity in B-CLL cells by EMSA (band shift assay); assay type: cell-based, human; settings: B-CLL cell cultures incubated with 50 nM Dapt
Description: FIG. 3: Gliotoxin is a potent Notch2 trans-activation inhibitor in B-CLL cells. (A) EMSA showing the inhibition of DNA-bound Notch2IC complexes in the presence of 0.2 μg Gliotoxin. B-CLL samples (n=10) were cultured in the presence of 1 ng/ml TPA with or without 0.2 μM Gliotoxin for 24 hours. Nuclear extracts were subjected to EMSA using a oligonucleotide probe spanning a well defined CBF1/NotchIC binding site derived from the CD23a promoter. (B). Corresponding FACS analysis (plus 10 additional B-CLL samples) showing the downregulation of the Notch2 target gene CD23 as well as the induction of apoptosis of Gliotoxin treated B-CLL samples. Columnes represent the percentage of CD19^+CD23^+ (grey bars) and apoptotic cells (black bars: including early apoptotic cells single positive for AnnexinV, and late apoptotic cells double positive for AnnexinV and probidium iodide), respectively.
As drug screening model, a cell culture system was established which conserves the phenotype of freshly isolated B-CLL cells (3×10^6 B-CLL cells/ml RPMI medium+10% FCS, supplemented with 1 ng/ml of TPA). Notch2 activity in the cell nucleus is determined by means of EMSA (electrophoretic mobility shift assay) experiments, and the cell viability (Probidium iodide/annexinV) and CD23 expression (Notch2 target gene) is determined by means of FACS (flow cytometry) analyses, respectively. […]

γ-secretase = γ-secretase inhibitor; cited from earlier work

Compound | efficacy against tumour cell lines [1] | influence on the activity of N2^IC (Notch2 (N2^IC)) | IC50 (γ-secretase)
acetylgliotoxin | effective |  | 
C[C@H](NC(=O)Cc1cc(F)cc(F)c1)C(=O)N[C@H](C(=O)OC(C)(C)C)c1ccccc1 [Dapt, reference compound] |  | no influence | 5 to 10 nM
